Experimental data: paper PMC8037948, “Assessing the In Vitro Inhibitory Effects on Key Enzymes Linked to Type-2 Diabetes and Obesity and Protein Glycation by Phenolic Compounds of Lauraceae Plant Species Endemic to the Laurisilva Forest” (Molecules, 2021)

What was measured:
[1] = biological target: T1, human aldose reductase (HAR) (Homo sapiens, UniProt P15121); test: NADPH absorbance at […] nm; format: biochemical
T1 construct: gene AKR1B1; commercial enzyme from Prozomix

[2] = biological target: T2, rat α-glucosidase (intestinal acetone powder from rat); test: p-nitrophenyl alpha-D-glucopyranoside hydrolysis, absorbance at […] nm; format: biochemical; conditions: alpha-pNPG, 0.1 M phosphate pH 6.9, 37 °C, 20 min; crude intestinal extract
T2 construct: gene Si; supernatant of rat intestinal acetone powder (Sigma-Aldrich), crude extract; several alpha-glucosidases

| SMILES | IC50 [1] [µM] | α-Glucosidase [2] [mg/mL] |
| --- | --- | --- |
| Oc1cc(O)c2c(c1)O[C@H](c1ccc(O)c(O)c1)[C@@H](O)C2 [(+)-Catechin] | 2620 | – |
| OC[C@H]1NC[C@H](O)[C@@H](O)[C@@H]1O [1-Deoxynojirimycin] | – | 0.01 ± 0.01 |
| C[C@H]1O[C@H](O[C@H]2[C@H](O)[C@@H](O)[C@@H](O[C@H]3[C@H](O)[C@@H](O)C(O)O[C@@H]3CO)O[C@@H]2CO)[C@H](O)[C@@H](O)[C@@H]1N[C@H]1C=C(CO)[C@@H](O)[C@H](O)[C@H]1O (stereo partly drawn) [Acarbose] | – | 0.12 ± 0.01 |
